system: TFEB; assay: TFEB nuclear translocation assay, HeLa wt cells; type: cell-based; conditions: Homo sapiens, HeLa, 2 h, 2 hrs compound treatment, Table 1 does not say HeLa wt or TRPML1 KO
In short: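 HeLa wt, 2 hr compound, 37° C; 4% PFA fix; anti-TFEB (rabbit, 1:200, overnight 4° C) + Alexa 488 secondary, Hoechst. Imaged ×20, 4 fields/well. Readout: nuclear/ring Alexa 488 intensity ratio; AC50.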

`CCN1CCN(c2ccc(Cl)cc2NS(=O)(=O)c2ccc3c(c2)CCC3)C(=O)C1` [Compound A-314, N-[5-chloro-2-(4-ethyl-2-oxopiperazin-1-yl)phenyl]-2,3-dihydro-1H-indene-5-sulfonamide] and `CCN1CCN(c2c(Cl)cccc2NS(=O)(=O)c2ccc3c(c2)CCC3)C(=O)C1` [Compound A-315, N-[3-chloro-2-(4-ethyl-2-oxopiperazin-1-yl)phenyl]-2,3-dihydro-1H-indene-5-sulfonamide] cannot be ordered by AC50: ≥ 10 µM for the first, ≥ 10 µM for the second.

First: O=S(=O)(Nc1cc(Cl)ccc1N1CCCC2(CCCCO2)C1)c1ccc2c(c1)CCC2 (centres unmarked) [Compound A-316, N-(5-chloro-2-{1-oxa-8-azaspiro[5.5]undecan-8-yl}phenyl)-2,3-dihydro-1H-indene-5-sulfonamide]
Second: O=S(=O)(Nc1cc(Cl)ccc1N1CCCC2(CCCOC2)C1)c1ccc2c(c1)CCC2 (centres unmarked) [Compound A-347, N-(5-chloro-2-{2-oxa-8-azaspiro[5.5]undecan-8-yl}phenyl)-2,3-dihydro-1H-indene-5-sulfonamide]
The AC50 of the first is higher: 2.01 to 8 µM for the first, ≤ 2 µM for the second.

`O=S1(=O)CCC2(CC1)CN(c1ccc(Cl)cc1NS(=O)(=O)c1ccc3c(c1)CCC3)CCO2` [Compound A-317, N-(5-chloro-2-{9,9-dioxo-1-oxa-9λ^6-thia-4-azaspiro[5.5]undecan-4-yl}phenyl)-2,3-dihydro-1H-indene-5-sulfonamide] and `O=S(=O)(Nc1cc(Cl)ccc1N1CCOC2(CCOCC2)C1)c1ccc2c(c1)CCC2` [Compound A-343, N-(5-chloro-2-{1,9-dioxa-4-azaspiro[5.5]undecan-4-yl}phenyl)-2,3-dihydro-1H-indene-5-sulfonamide] fall in the same range of AC50: 2.01 to 8 µM for the first, 2.01 to 8 µM for the second.

First: CN1CC(c2ccccc2)C2(CCN(c3ccccc3NS(=O)(=O)c3ccc(S(=O)(=O)N(C)C)cc3)CC2)C1=O (centres unmarked) [Compound A-318, N1,N1-dimethyl-N4-(2-{2-methyl-1-oxo-4-phenyl-2,8-diazaspiro[4.5]decan-8-yl}phenyl)benzene-1,4-disulfonamide]
Second: CN1CC2(CCN(c3ccccc3NS(=O)(=O)c3ccc(S(=O)(=O)N(C)C)cc3)CC2)c2cccnc21 [Compound A-331, N1,N1-dimethyl-N4-(2-{1′-methyl-1′,2′-dihydrospiro[piperidine-4,3′-pyrrolo[2,3-b]pyridin]-1-yl}phenyl)benzene-1,4-disulfonamide]
The AC50 of the first is higher: 2.01 to 8 µM for the first, ≤ 2 µM for the second.

First: CS(=O)(=O)c1ccc(S(=O)(=O)Nc2ccccc2N2CCC3(CC2)COc2cc(F)ccc23)cc1 [Compound A-319, N-(2-{6-fluoro-2H-spiro[1-benzofuran-3,4′-piperidin]-1′-yl}phenyl)-4-methanesulfonylbenzene-1-sulfonamide]
Second: CS(=O)(=O)c1ccc(S(=O)(=O)Nc2ccccc2N2CCC3(CC2)OCc2cc(F)ccc23)cc1 [Compound A-332, N-(2-{5-fluoro-3H-spiro[2-benzofuran-1,4′-piperidin]-1′-yl}phenyl)-4-methanesulfonylbenzene-1-sulfonamide]
The AC50 of the first is lower: ≤ 2 µM for the first, 2.01 to 8 µM for the second.

First: CN1CC2(CCN(c3ccccc3NS(=O)(=O)c3ccc(S(C)(=O)=O)cc3)CC2)c2ncccc21 [Compound A-320, 4-methanesulfonyl-N-(2-{1′-methyl-1′,2′-dihydrospiro[piperidine-4,3′-pyrrolo[3,2-b]pyridin]-1-yl}phenyl)benzene-1-sulfonamide; formic acid]
Second: CN1CC2(CCN(c3ccccc3NS(=O)(=O)c3ccc(S(C)(=O)=O)cc3)CC2)c2cccnc21 [Compound A-348, 4-methanesulfonyl-N-(2-{1′-methyl-1′,2′-dihydrospiro[piperidine-4,3′-pyrrolo[2,3-b]pyridin]-1-yl}phenyl)benzene-1-sulfonamide]
The AC50 of the first is higher: ≥ 10 µM for the first, 8.01 to 9.99 µM for the second.

`CN(C)S(=N)(=O)c1ccc(S(=O)(=O)Nc2ccccc2N2CCN(C(=O)C(C)(C)C)CC2)cc1` (centres unmarked) [Compound A-321, 4-({2-[4-(2,2-dimethylpropanoyl)piperazin-1-yl]phenyl}sulfamoyl)-N,N-dimethylbenzene-1-sulfonoimidamide] and `CC(C)(C)C(=O)N1CCN(c2ccccc2NS(=O)(=O)c2ccc(S(C)(=O)=O)cc2)CC1` [Compound A-324, N-{2-[4-(2,2-dimethylpropanoyl)piperazin-1-yl]phenyl}-4-methanesulfonylbenzene-1-sulfonamide] cannot be ordered by AC50: ≥ 10 µM for the first, ≥ 10 µM for the second.

First: CC(C)C(=O)N1CCN(c2ccccc2NS(=O)(=O)c2ccc(S(=O)(=O)N(C)C)cc2)CC1 [Compound A-322, N1,N1-dimethyl-N4-{2-[4-(2-methylpropanoyl)piperazin-1-yl]phenyl}benzene-1,4-disulfonamide]
Second: CC(C)OC(=O)N1CCN(c2ccccc2NS(=O)(=O)c2ccc(S(=O)(=O)N(C)C)cc2)CC1 [Compound A-336, propan-2-yl 4-{2-[4-(dimethylsulfamoyl)benzenesulfonamido]phenyl}piperazine-1-carboxylate]
The AC50 of the first is higher: 8.01 to 9.99 µM for the first, ≤ 2 µM for the second.

Compared with `CN(C)S(=O)(=O)c1ccc(S(=O)(=O)Nc2ccccc2N2CCC(C(=O)NC(C)(C)C)CC2)cc1` [Compound A-323, N-tert-butyl-1-{2-[4-(dimethylsulfamoyl)benzenesulfonamido]phenyl}piperidine-4-carboxamide], `CN(C)S(=O)(=O)c1ccc(S(=O)(=O)Nc2ccccc2N2CCN(C(C)(C)C)CC2)cc1` [Compound A-337, N4-[2-(4-tert-butylpiperazin-1-yl)phenyl]-N1,N1-dimethylbenzene-1,4-disulfonamide] is higher in AC50: 2.01 to 8 µM for the first, 8.01 to 9.99 µM for the second.

`CN(C)C(=O)N1CCN(c2ccccc2NS(=O)(=O)c2ccc(S(=O)(=O)N(C)C)cc2)CC1` [Compound A-325, 4-{2-[4-(dimethylsulfamoyl)benzenesulfonamido]phenyl}-N,N-dimethylpiperazine-1-carboxamide] and `CN(C)S(=O)(=O)c1ccc(S(=O)(=O)Nc2ccccc2N2CCN(C(=O)C(O)c3ccccc3)CC2)cc1` (centres unmarked) [Compound A-335, N4-{2-[4-(2-hydroxy-2-phenylacetyl)piperazin-1-yl]phenyl}-N1,N1-dimethylbenzene-1,4-disulfonamide] cannot be ordered by AC50: ≥ 10 µM for the first, ≥ 10 µM for the second.

Compared with `O=C1COCCN1c1ccc(Cl)cc1NS(=O)(=O)c1ccc2c(c1)CCC2` [Compound A-326, N-[5-chloro-2-(3-oxomorpholin-4-yl)phenyl]-2,3-dihydro-1H-indene-5-sulfonamide], `O=S(=O)(Nc1cc(Cl)ccc1N1CCCC12CCOC2)c1ccc2c(c1)CCC2` (centres unmarked) [Compound A-346, N-(5-chloro-2-{7-oxa-1-azaspiro[4.4]nonan-1-yl}phenyl)-2,3-dihydro-1H-indene-5-sulfonamide] is lower in AC50: ≥ 10 µM for the first, ≤ 2 µM for the second.

`CN(C)S(=O)(=O)c1ccc(S(=O)(=O)Cc2cccc(Cl)c2N2CCOCC2)cc1` [Compound A-327, 4-{[3-chloro-2-(morpholin-4-yl)phenyl]methanesulfonyl}-N,N-dimethylbenzene-1-sulfonamide] and `CN(C)S(=O)(=O)c1ccc(S(=O)(=O)Nc2cccc(Cl)c2N2CCOCC2)nc1` [Compound A-340, N2-[3-chloro-2-(morpholin-4-yl)phenyl]-N5,N5-dimethylpyridine-2,5-disulfonamide] cannot be ordered by AC50: ≥ 10 µM for the first, ≥ 10 µM for the second.

First: O=S(=O)(Nc1cc(Cl)ccc1N1CCC2(CCCO2)CC1)c1ccc2c(c1)CCC2 [Compound A-328, N-(5-chloro-2-{1-oxa-8-azaspiro[4.5]decan-8-yl}phenyl)-2,3-dihydro-1H-indene-5-sulfonamide]
Second: O=S(=O)(Nc1cc(Cl)ccc1N1CCCC2(COC2)C1)c1ccc2c(c1)CCC2 [Compound A-345, N-(5-chloro-2-{2-oxa-6-azaspiro[3.5]nonan-6-yl}phenyl)-2,3-dihydro-1H-indene-5-sulfonamide]
The AC50 of the first is higher: ≥ 10 µM for the first, 2.01 to 8 µM for the second.

First: Cn1nccc1S(=O)(=O)Nc1cccc(Cl)c1N1CCOCC1 [Compound A-329, N-[3-chloro-2-(morpholin-4-yl)phenyl]-1-methyl-1H-pyrazole-5-sulfonamide]
Second: CN(C)S(=O)(=O)c1ccc(C(Nc2cccc(Cl)c2N2CCOCC2)C(F)(F)F)cc1 (centres unmarked) [Compound A-342, 4-(1-{[3-chloro-2-(morpholin-4-yl)phenyl]amino}-2,2,2-trifluoroethyl)-N,N-dimethylbenzene-1-sulfonamide]
The AC50 of the first is higher: ≥ 10 µM for the first, 8.01 to 9.99 µM for the second.

First: CN(C)S(=O)(=O)c1ccc(S(=O)(=O)Nc2cc(Cl)ccc2N2CCOCC2)nc1 [Compound A-330, N2-[5-chloro-2-(morpholin-4-yl)phenyl]-N5,N5-dimethylpyridine-2,5-disulfonamide]
Second: CN(C)S(=O)(=O)c1ccc(S(=O)(=O)Nc2ccccc2N2CCC(C(=O)Nc3ccccc3)CC2)cc1 [Compound A-338, 1-{2-[4-(dimethylsulfamoyl)benzenesulfonamido]phenyl}-N-phenylpiperidine-4-carboxamide]
The AC50 of the first is higher: ≥ 10 µM for the first, 2.01 to 8 µM for the second.

First: CS(=O)(=O)c1ccc(S(=O)(=O)Nc2ccccc2N2CCC3(CCO3)CC2)cc1 [Compound A-333, 4-methanesulfonyl-N-(2-{1-oxa-7-azaspiro[3.5]nonan-7-yl}phenyl)benzene-1-sulfonamide]
Second: CN(C(=O)C1CCN(c2ccccc2NS(=O)(=O)c2ccc(S(=O)(=O)N(C)C)cc2)CC1)c1ccccc1 [Compound A-339, 1-{2-[4-(dimethylsulfamoyl)benzenesulfonamido]phenyl}-N-methyl-N-phenylpiperidine-4-carboxamide]
The AC50 of the first is higher: ≥ 10 µM for the first, 2.01 to 8 µM for the second.

First: Cc1ccc(S(=O)(=O)Nc2ccccc2N2CCN(C(=O)C(C)c3ccccc3)CC2)cc1 (centres unmarked) [Compound A-334, 4-methyl-N-{2-[4-(2-phenylpropanoyl)piperazin-1-yl]phenyl}benzene-1-sulfonamide]
Second: O=S(=O)(Nc1cccc(Cl)c1N1CCC(c2ccc(Cl)cc2F)CC1)c1ccc2c(c1)CCC2 [Compound A-341, N-{3-chloro-2-[4-(4-chloro-2-fluorophenyl)piperidin-1-yl]phenyl}-2,3-dihydro-1H-indene-5-sulfonamide]
The AC50 of the first is higher: 2.01 to 8 µM for the first, ≤ 2 µM for the second.

`O=S(=O)(Nc1cc(Cl)ccc1N1CC23CCC2(COC3)C1)c1ccc2c(c1)CCC2` (centres unmarked) [Compound A-344, N-(5-chloro-2-{3-oxa-7-azatricyclo[3.3.2.0^1,^5]decan-7-yl}phenyl)-2,3-dihydro-1H-indene-5-sulfonamide] was tested, and the AC50 was 2.01 to 8 µM.

Reference: patent publication US20230104936A1, “TRPML MODULATORS” (Casma Therapeutics, Inc., priority 2019, published 2023)
